Assay results as given in patent US12157730B2, “Heteroaryl derivative, method for producing same, and pharmaceutical composition comprising same as effective component” (VORONOI INC., priority 2019, dated 2024).

Target: T1, Ba/F3 cell EGFR Exon20 ins NPH (Homo sapiens, UniProt P00533, INS773NPH)
T1 construct: expressed in transfected cells; host or cells: Ba/F3
Assay: Ba/F3 cell proliferation suppression, EGFR Exon20 ins NPH
Assay type: cell-based
Details: GI50 class; Ba/F3 cell line with NPH inserted at Exon20 of EGFR; 72 hours
In short: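 Seed 3000–5000 cells/well; after 24 h add compound (12 conc., 0.3 nM–50 um final); incubate 72 h; add CellTiter-Glo, 10 min room temperature; read luminescence; GI50 from % growth vs control, triplicate.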

Row | Ba/F3 (NPH) Activity | Structure (SMILES)
1 | B (50 nM ≤ GI50 < 500 nM) | C=CC(=O)Nc1cc(Nc2cc(N3OCC[C@@H]3c3cccc(Cl)c3Cl)ncn2)c(OC)cc1N1CCC(N2CC[C@@H](N(C)C)C2)CC1 [compound 610, N-(5-((6-((R)-3-(2,3-dichlorophenyl)isoxazolidine-2-yl)pyrimidine-4-yl)amino)-2-(4-((R)-3-(dimethylamino)pyrolidine-1-yl)piperidine-1-yl)-4-methoxyphenyl) acrylamide]
2 | A (GI50 < 50 nM) | C=CC(=O)Nc1cc(Nc2cc(N3OCC[C@@H]3Cc3cccc(Cl)c3C)ncn2)c(OC)cc1N1CCC(N2CCN(C3CC3)CC2)CC1 [compound 1025, N-(5-((6-((S)-3-(3-chloro-2-methylbenzyl)isoxazolidine-2-yl)pyrimidine-4-yl)amino)-2-(4-(4-cyclopropylpiperazine-1-yl)piperidine-1-yl)-4-methoxyphenyl) acrylamide]
3 | A (GI50 < 50 nM) | C=CC(=O)Nc1cc(Nc2cc(N3OCC[C@@H]3c3cc(F)cc(Cl)c3)ncn2)c(OC)cc1N1CCC(N2CCN(C3CC3)[C@@H](C)C2)CC1 [Example 157, N-(5-((6-((R)-3-(3-chloro-5-fluorophenyl)isoxazolidine-2-yl)pyrimidine-4-yl)amino)-2-(4-((S)-4-cyclopropyl-3-methylpiperazine-1-yl)piperidine-1-yl)-4-methoxyphenyl) acrylamide]
4 | A (GI50 < 50 nM) | C=CC(=O)Nc1cc(Nc2cc(N3OCC[C@@H]3c3cc(F)cc(F)c3)ncn2)c(OC)cc1N1CCC(N2CCN(C3CC3)[C@H](C)C2)CC1 [Example 109, N-(2-(4-((R)-4-cyclopropyl-3-methylpiperazine-1-yl)piperidine-1-yl)-5-((6-((R)-3-(3,5-difluorophenyl)isoxazolidine-2-yl)pyrimidine-4-yl)amino)-4-methoxyphenyl) acrylamide]
5 | A (GI50 < 50 nM) | C=CC(=O)Nc1cc(Nc2cc(N3OCC[C@@H]3c3ccccc3)ncn2)c(OC)cc1N1CCC(N2CCN(C3CCCC3)CC2)CC1 [Example 97, N-(2-(4-(4-cyclopentylpiperazine-1-yl)piperidine-1-yl)-4-methoxy-5-((6-((R)-3-phenylisoxazolidine-2-yl)pyrimidine-4-yl)amino)phenyl) acrylamide]
6 | A (GI50 < 50 nM) | C=CC(=O)Nc1cc(Nc2cc(N3OCC[C@@H]3c3c(F)ccc(F)c3F)ncn2)c(OC)cc1N1CCC(N2CCO[C@@H](C)C2)CC1 [compound 645, N-(4-methoxy-2-(4-((S)-2-methylmorpholino)piperidine-1-yl)-5-((6-((R)-3-(2,3,6-trifluorophenyl)isoxazolidine-2-yl)pyrimidine-4-yl)amino)phenyl)acrylamide]
7 | A (GI50 < 50 nM) | C=CC(=O)Nc1cc(Nc2cc(N3OCC[C@@H]3c3cccc(Cl)c3Cl)ncn2)c(OC)cc1N1C[C@H]2C[C@@H]1CN2CC [compound 525, N-(5-((6-((R)-3-(2,3-dichlorophenyl)isoxazolidine-2-yl)pyrimidine-4-yl)amino)-2-((1R,4R)-5-ethyl-2,5-diazabicyclo[2.2.1]heptane-2-yl)-4-methoxyphenyl) acrylamide]
8 | A (GI50 < 50 nM) | C=CC(=O)Nc1cc(Nc2cc(N3OCC[C@@H]3c3ccc(F)c(F)c3F)ncn2)c(OC)cc1N1CCC(N(C)C)CC1 [compound 573, N-(2-(4-(dimethylamino)piperidine-1-yl)-4-methoxy-5-((6-((R)-3-(2,3,4-trifluorophenyl)isoxazolidine-2-yl)pyrimidine-4-yl)amino)phenyl)acrylamide]
9 | A (GI50 < 50 nM) | C=CC(=O)Nc1cc(Nc2cc(N3OCC[C@@H]3c3cccc(C)c3F)ncn2)c(OC)cc1N1CCC(N2C[C@@H](C)N(C3CC3)C[C@H]2C)CC1 [Example 124, N-(2-(4-((2R,5R)-4-cyclopropyl-2,5-dimethylpiperazine-1-yl)piperidine-1-yl)-5-((6-((R)-3-(2-fluoro-3-methylphenyl)isoxazolidine-2-yl)pyrimidine-4-yl)amino)-4-methoxyphenyl) acrylamide]
10 | A (GI50 < 50 nM) | C=CC(=O)Nc1cc(Nc2cc(N3OCC[C@@H]3c3cccc(F)c3)ncn2)c(OC)cc1N1CCN(C2CC2)CC1 [compound 830, N-(2-(4-cyclopropylpiperazine-1-yl)-5-((6-((R)-3-(3-fluorophenyl)isoxazolidine-2-yl)pyrimidine-4-yl)amino)-4-methoxyphenyl) acrylamide]
11 | A (GI50 < 50 nM) | C=CC(=O)Nc1cc(Nc2cc(N3OCC[C@@H]3Cc3cccc(Cl)c3Cl)ncn2)c(OC)cc1N1CC[C@@H](N(C)C)C1 [compound 984, N-(5-((6-((S)-3-(2,3-dichlorobenzyl)isoxazolidine-2-yl)pyrimidine-4-yl)amino)-2-((R)-3-(dimethylamino)pyrolidine-1-yl)-4-methoxyphenyl) acrylamide]
12 | A (GI50 < 50 nM) | C=CC(=O)Nc1cc(Nc2cc(N3OCC[C@@H]3c3cccc(Cl)c3F)ncn2)c(OC)cc1N1CCC(N2CCN(CC3CC3)CC2)CC1 [Example 96, N-(5-((6-((R)-3-(3-chloro-2-fluorophenyl)isoxazolidine-2-yl)pyrimidine-4-yl)amino)-2-(4-(4-(cyclopropylmethyl)piperazine-1-yl)piperidine-1-yl)-4-methoxyphenyl) acrylamide]
13 | B (50 nM ≤ GI50 < 500 nM) | C=CC(=O)Nc1cc(Nc2cc(N3OCC[C@@H]3c3ccc(C)nc3)ncn2)c(OC)cc1N1CCC(N2CCC(N3CCOCC3)CC2)CC1 [Example 235, N-(4-methoxy-5-((6-((R)-3-(6-methylpyridine-3-yl)isoxazolidine-2-yl)pyrimidine-4-yl)amino)-2-(4-morpholino-[1,4'-bipiperidine]-1'-yl)phenyl)acrylamide]
14 | A (GI50 < 50 nM) | C=CC(=O)Nc1cc(Nc2cc(N3OCC[C@@H]3c3ccc(C)nc3)ncn2)c(OC)cc1N(C)CCN(C)C [Example 36, N-(2-((2-(dimethylamino)ethyl)(methyl)amino)-4-methoxy-5-((6-((R)-3-(6-methylpyridine-3-yl)isoxazolidine-2-yl)pyrimidine-4-yl)amino)phenyl) acrylamide]
15 | B (50 nM ≤ GI50 < 500 nM) | C=CC(=O)Nc1cc(Nc2cc(N3OCC[C@@H]3c3ccc4ccccc4c3)ncn2)c(OC)cc1N1CCN(CC)CC1 [compound 514, N-(2-(4-ethylpiperazine-1-yl)-4-methoxy-5-((6-((R)-3-(naphthalene-2-yl)isoxazolidine-2-yl)pyrimidine-4-yl)amino)phenyl)acrylamide]
16 | C (500 nM ≤ GI50 < 5000 nM) | C=CC(=O)Nc1cc(Nc2cc(N3OCC[C@@H]3Cc3ccccc3)ncn2)c(OC)cc1N1CCC(OCCN(CC)CC)CC1 [compound 978, N-(5-((6-((S)-3-benzylisoxazolidine-2-yl)pyrimidine-4-yl)amino)-2-(4-(2-(diethylamino)ethoxy)piperidine-1-yl)-4-methoxyphenyl) acrylamide]
17 | A (GI50 < 50 nM) | C=CC(=O)Nc1cc(Nc2cc(N3OCC[C@@H]3c3cc(F)cc(F)c3)ncn2)c(OC)cc1N1CCC(N2CCOC[C@H]2C)CC1 [compound 842, N-(5-((6-((R)-3-(3,5-difluorophenyl)isoxazolidine-2-yl)pyrimidine-4-yl)amino)-4-methoxy-2-(4-((R)-3-methylmorpholino)piperidine-1-yl)phenyl) acrylamide]
18 | C (500 nM ≤ GI50 < 5000 nM) | C=CC(=O)Nc1cc(Nc2cc(N3OCC[C@H]3Cc3ccccc3)ncn2)c(OC)cc1N1CCN(C)CC1 [compound 968, N-(5-((6-((R)-3-benzylisoxazolidine-2-yl)pyrimidine-4-yl)amino)-4-methoxy-2-(4-methylpiperazine-1-yl)phenyl)acrylamide]
19 | A (GI50 < 50 nM) | C#Cc1cccc([C@H]2CCON2c2cc(Nc3cc(NC(=O)C=C)c(N4CCC(N5CCOCC5)CC4)cc3OC)ncn2)c1 [compound 650, N-(5-((6-((R)-3-(3-ethynylphenyl)isoxazolidine-2-yl)pyrimidine-4-yl)amino)-4-methoxy-2-(4-morpholinopiperidine-1-yl)phenyl)acrylamide]
20 | A (GI50 < 50 nM) | C=CC(=O)Nc1cc(Nc2cc(N3OCC[C@@H]3c3cccc(Cl)c3F)ncn2)c(OC)cc1N1CCC(N2CCN(C3CCCC3)CC2)CC1 [Example 101, N-(5-((6-((R)-3-(3-chloro-2-fluorophenyl)isoxazolidine-2-yl)pyrimidine-4-yl)amino)-2-(4-(4-cyclopentylpiperazine-1-yl)piperidine-1-yl)-4-methoxyphenyl) acrylamide]
21 | B (50 nM ≤ GI50 < 500 nM) | C=CC(=O)Nc1cc(Nc2cc(N3OCC[C@@H]3c3c(F)ccc(F)c3F)ncn2)c(OC)cc1N1CCN(C)CC1 [compound 629, N-(4-methoxy-2-(4-methylpiperazine-1-yl)-5-((6-((R)-3-(2,3,6-trifluorophenyl)isoxazolidine-2-yl)pyrimidine-4-yl)amino)phenyl)acrylamide]
22 | A (GI50 < 50 nM) | C=CC(=O)Nc1cc(Nc2cc(N3OCC[C@@H]3c3cccc4ccccc34)ncn2)c(OC)cc1N(C)CCN(C)C [compound 440, N-(2-((2-(dimethylamino)ethyl) (methyl)amino)-4-methoxy-5-((6-((R)-3-(naphthalene-1-yl)isoxazolidine-2-yl)pyrimidine-4-yl)amino)phenyl)acrylamide]
23 | B (50 nM ≤ GI50 < 500 nM) | C=CC(=O)Nc1cc(Nc2cc(N3OCC[C@@H]3c3ccc(Cl)c(Cl)c3)ncn2)c(OC)cc1N1CCC(N2CCN(C(C)C)CC2)CC1 [compound 689, N-(5-((6-((R)-3-(3,4-dichlorophenyl)isoxazolidine-2-yl)pyrimidine-4-yl)amino)-2-(4-(4-isopropylpiperazine-1-yl)piperidine-1-yl)-4-methoxyphenyl) acrylamide]
